Measurements from PubChem BioAssay (NCI).
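How tested: cells in 96-well plates exposed to compound for 48 hours at five concentrations. TGI is the concentration that stops growth completely.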

How the values were obtained:
Experiment in all cases: DTP human tumour cell line panel, 48 h
M14 melanoma = tested on: M14 melanoma
SW-620 colon = tested on: SW-620 colon
MCF7 breast = tested on: MCF7 breast
OVCAR-4 ovarian = tested on: OVCAR-4 ovarian
NCI-H522 lung = tested on: NCI-H522 lung
SNB-19 CNS = tested on: SNB-19 CNS
SK-OV-3 ovarian = tested on: SK-OV-3 ovarian
SNB-75 CNS = tested on: SNB-75 CNS
CCRF-CEM leukemia = tested on: CCRF-CEM leukemia
SF-539 CNS = tested on: SF-539 CNS
HOP-62 NSCLC = tested on: HOP-62 NSCLC
HT29 colon = tested on: HT29 colon
SK-MEL-28 melanoma = tested on: SK-MEL-28 melanoma
UACC-62 melanoma = tested on: UACC-62 melanoma
HS 578T breast = tested on: HS 578T breast
OVCAR-8 ovarian = tested on: OVCAR-8 ovarian
MALME-3M melanoma = tested on: MALME-3M melanoma
LOX IMVI melanoma = tested on: LOX IMVI melanoma

Row | Compound | TGI (M14 melanoma) [µM] | TGI (SW-620 colon) [µM] | TGI (MCF7 breast) [µM] | TGI (OVCAR-4 ovarian) [µM] | TGI (NCI-H522 lung) [µM] | TGI (SNB-19 CNS) [µM] | TGI (SK-OV-3 ovarian) [µM] | TGI (SNB-75 CNS) [µM] | TGI (CCRF-CEM leukemia) [µM] | TGI (SF-539 CNS) [µM] | TGI (HOP-62 NSCLC) [µM] | TGI (HT29 colon) [µM] | TGI (SK-MEL-28 melanoma) [µM] | TGI (UACC-62 melanoma) [µM] | TGI (HS 578T breast) [µM] | TGI (OVCAR-8 ovarian) [µM] | TGI (MALME-3M melanoma) [µM] | TGI (LOX IMVI melanoma) [µM]
1 | COC(=O)C(C)(C)OCc1ccc(C2NC(=O)N(c3cccc(Cl)c3)C(=O)N2c2cccc(Cl)c2)cc1 (configuration not stated) | > 100 | > 100 | > 100 | > 100 | 76.8 | > 100 | > 100 | 6.95 | > 100 | > 100 | > 100 | > 100 | > 100 | > 100 | 44.4 | > 100 |  | 
2 | CC1=NNC(=O)C1C1CC(c2c[nH]c3ccccc23)=NNC1=S (configuration not stated) | > 100 | > 100 |  |  | > 100 | > 100 | > 100 | > 100 | > 100 | > 100 | > 100 | > 100 | > 100 | > 100 | > 100 | > 100 | > 100 | 
3 | CCOC(O)(NC(=O)C(C(F)(F)F)C(F)(F)F)C(F)(F)F (configuration not stated) | > 100 | > 100 |  |  |  | > 100 |  | > 100 | > 100 | > 100 |  | > 100 | > 100 |  | > 100 | > 100 |  | > 100
4 | Cc1ccc(O)c(C(c2ccc([N+](=O)[O-])cc2)c2cc(C)ccc2O)c1 | 26.7 | 32.1 | 20.3 | 23.8 | 28.6 | 26.2 | 30 | 15.5 | 56.9 | 32.1 | 23.1 | 30 | 38.4 | 21.7 | 24 | 30.7 |  | 55.6
5 | CC(C)CC[C@H](O)[C@@H](C)[C@H]1[C@@H](OC2OC(C)C(O)C(O)C2O)C[C@H]2[C@@H]3CC=C4C[C@@H](O)CC[C@]4(C)[C@H]3[C@@H](O)C[C@]12C (some centres not stated) | > 23.4 | > 19.9 |  |  | > 100 | > 100 | > 100 | 59.1 |  | 0.578 | > 68.7 | > 100 | 6.47 | 3.21 | 2.36 | > 100 | > 68.9 | > 100
6 | Cc1ccc(Cc2n[nH]c(=O)n2-c2ccccc2)cc1 |  | > 100 | > 100 |  |  | > 100 |  | > 100 |  | > 100 |  | > 100 | > 100 | > 100 |  | > 100 | > 100 | 
7 | CCOC(=O)[C@]12C(=C(c3ccccc3)O[C@H]3C=CCC[C@H]31)C(=O)C(=O)N2c1ccccc1 | > 100 |  | > 100 | > 100 | > 100 | > 100 | > 100 |  |  | > 100 | > 100 | > 100 |  | > 100 |  | > 100 | > 100 | 
8 | O=C(NCCCCN(CCCNC(=O)C(F)(F)F)Cc1ccc2ccccc2c1)C(F)(F)F | 30.3 | 32.4 | 27.8 | 37.8 | 36.7 | 29 | 55.6 | 28.5 |  | 29.8 |  | 26.6 | 31.5 | 37 | 38.6 | 36.1 | 29.1 | 32.7
9 | CCOC(=O)C1C(c2ccc(OC)cc2)c2c([nH]n(-c3ccccc3)c2=O)CC1(O)OCC (configuration not stated) | > 100 | > 100 | > 100 | > 100 | > 100 |  |  | > 100 |  | > 100 | > 100 | > 100 | > 100 | > 100 | > 100 | > 100 | > 100 | > 100
10 | O=S(=O)(O)CCCC1S(=O)(=O)OCCOS1(=O)=O | > 100 | > 100 | > 100 | > 100 | > 100 | > 100 | > 100 | > 100 |  | > 100 | > 100 | > 100 | > 100 | > 100 | > 100 | > 100 | > 100 | > 100
11 | COc1ccc(/C=C2\C(=O)N(C)C(=O)c3cc(OC)c(OC)cc32)cc1OC | > 100 | > 100 | > 100 | > 100 | 36.4 | > 100 |  |  | 69.7 | 76.2 | 90 | 34.2 |  | 94 |  |  |  | 34.1
12 | CC(C)(C)n1c(=O)[nH]n(C2NN=Cc3cccc4cccc2c34)c1=O (configuration not stated) | > 100 | > 100 | > 100 | > 100 |  | > 100 | > 100 | 85.6 | 63.6 | 45.1 |  | 45.9 | > 100 | > 100 | > 100 | > 100 | > 100 | > 100
13 | c1ccc2c(c1)Nc1ccccc1[P+]21c2ccccc2Nc2ccccc21 | 2.23 | 3.42 |  | > 32.5 | 0.728 | 1.09 | 0.869 | 0.332 | 0.85 | 0.817 | 1.58 | 2.9 | 1.65 |  | 1.36 | 5.39 |  | 2.23
14 | Cn1ccc(C(=O)N2CCSC2=S)c(OCc2ccccc2)c1=O |  | > 100 |  | > 100 | > 100 | > 100 |  | > 100 | > 100 |  |  | > 100 | > 100 | > 100 | > 100 | > 100 | > 100 | > 100
15 | n1onc2c1NC1Nc3nonc3NC1N2 (configuration not stated) | > 100 | > 100 | > 100 | > 100 | > 100 | > 100 | > 100 | > 100 | > 100 | > 100 | > 100 | > 100 | > 100 |  | > 100 | > 100 |  | > 100
16 | C=[N+](CNC(=O)CNC(=O)C(Cc1ccc([N+](=O)[O-])cc1)NC(=O)OC(C)(C)C)C(=O)CNC(=O)C(Cc1ccc([N+](=O)[O-])cc1)NC(=O)OC(C)(C)C (configuration not stated) | > 100 | > 100 | > 100 | > 100 | 79.8 | > 100 | > 100 | > 100 |  | 57.9 | > 100 | > 100 | 72.6 | 50.1 | > 100 | > 100 | > 100 | 33.4
17 | O=C1NC(=O)C(CC(C(=O)C(=O)Nc2ccccc2Cl)C(=O)c2ccc3ccccc3c2)C(=O)N1 (configuration not stated) | > 100 | > 100 | > 100 | > 100 | > 100 | > 100 | > 100 | > 100 | > 100 | > 100 | > 100 | > 100 | > 100 | > 100 | > 100 | > 100 |  | > 100
18 | N#CC1Cc2cc3c(cc21)OCO3 (configuration not stated) | > 100 | > 100 | > 100 | > 100 |  | > 100 |  | > 100 | > 100 | > 100 | > 100 | > 100 | > 100 | > 100 | > 100 | > 100 | > 100 | > 100
19 | Cc1ccc(S(=O)(=O)n2c3c(c4ccccc42)CCN2C(=O)C(S(=O)(=O)c4ccccc4)=CCC32)cc1 (configuration not stated) |  | 0.715 | 0.656 | 0.436 | 0.567 | 1.91 | 2.61 | 1.41 |  | 0.391 | 0.562 | 0.48 | 0.353 | 0.622 | 9.15 | 0.328 | 0.463 | 0.452
20 | O=[N+]([O-])c1ccc(-c2nc3ccc([N+](=O)[O-])cc3[nH]2)cc1 | > 100 | > 100 | > 100 | > 100 | 88.4 | > 100 | > 100 | > 100 |  | > 100 | 97 | > 100 | > 100 | > 100 | > 100 | > 100 | 84.2 | 67.8
21 | O=[N+]([O-])c1ccc2[nH]nc(OCc3ccccn3)c2c1 | > 100 | > 100 |  | > 100 | > 100 | > 100 | > 100 | > 100 | > 100 | > 100 | > 100 | > 100 | > 100 | > 100 | > 100 | > 100 | > 100 | > 100
22 | CN(C)c1nc2oc(-c3ccccc3)c(-c3ccccc3)c2c2nncn12 | > 100 | > 100 | > 100 | > 100 | > 100 | > 100 | > 100 | > 100 | > 100 | > 100 |  | > 100 | > 100 | > 100 | > 100 | > 100 |  | > 100
